Assay results from ChEMBL document CHEMBL1201862, “PubChem BioAssay data set” (2004).
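Cells were grown in 96-well plates and exposed to each compound for 48 hours at five concentrations; endpoints were interpolated linearly between bracketing concentrations, or set to the highest concentration if not reached. GI50 is the concentration that inhibits growth by half.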 The source made the active and inactive calls. Rule as the data show it: active = GI50 up to about 1.1 µM and inactive = higher.

Experiments:
Experiment in all cases: NCI anticancer screen, dose series, 48 h
[1] = system: 786-0
[2] = system: A498
[3] = system: A549
[4] = system: ACHN
[5] = system: BT-549
[6] = system: CAKI-1
[7] = system: CCRF-CEM
[8] = system: DU-145
[9] = system: EKVX
[10] = system: HCC 2998
[11] = system: HCT-116
[12] = system: HCT-15
[13] = system: HL-60
[14] = system: HOP-62
[15] = system: HOP-92
[16] = system: HT-29
[17] = system: Hs-578T
[18] = system: IGROV-1
[19] = system: K562
[20] = system: KM12
[21] = system: LOX IMVI
[22] = system: M14
[23] = system: MCF7
[24] = system: MDA-MB-231
[25] = system: MDA-MB-435
[26] = system: MOLT-4
[27] = system: Malme-3M
[28] = system: NCI-H226
[29] = system: NCI-H23
[30] = system: NCI-H460
[31] = system: NCI-H522
[32] = system: NCI/ADR-RES
[33] = system: OVCAR-3
[34] = system: OVCAR-4
[35] = system: OVCAR-5
[36] = system: OVCAR-8
[37] = system: PC-3
[38] = system: RPMI-8226
[39] = system: RXF 393
[40] = system: SF-268
[41] = system: SF-295
[42] = system: SF-539
[43] = system: SK-MEL-28
[44] = system: SK-MEL-2
[45] = system: SK-MEL-5
[46] = system: SK-OV-3
[47] = system: SN12C
[48] = system: SNB-19
[49] = system: SNB-75
[50] = system: SW-620
[51] = system: T47D
[52] = system: TK-10
[53] = system: U-251
[54] = system: UACC-257
[55] = system: UACC-62
[56] = system: UO-31
[57] = system: COLO 205
[58] = system: SR

In the case of `O=C(CSCC(=O)N/N=C/c1ccc2c(c1)OCO2)N/N=C/c1ccc2c(c1)OCO2`, the GI50 [1] is reported as > 100 µM (inactive), the GI50 [2] is reported as > 100 µM (inactive) and the GI50 [3] is reported as 91.4 µM (inactive). For the same compound, the GI50 [4] was > 100 µM (inactive), the GI50 [5] was > 100 µM (inactive) and the GI50 [6] was > 100 µM (inactive). For the same compound, the GI50 [7] was 82.2 µM (inactive), the GI50 [8] was > 100 µM (inactive) and the GI50 [9] was 55.8 µM (inactive). The GI50 [10] was > 100 µM (inactive), the GI50 [11] was 85.7 µM (inactive) and the GI50 [12] was greater than 100 µM. For the same compound, the GI50 [13] was 58.9 µM (inactive), the GI50 [14] was > 100 µM (inactive) and the GI50 [15] was > 100 µM (inactive). For the same compound, the GI50 [16] was > 100 µM (inactive), the GI50 [17] was > 100 µM (inactive) and the GI50 [18] was > 100 µM (inactive). The GI50 [19] was 38.3 µM (inactive), the GI50 [20] was > 100 µM (inactive) and the GI50 [21] was > 100 µM (inactive). The GI50 [22] was 58.9 µM (inactive), the GI50 [23] was 63 µM (inactive) and the GI50 [24] was > 100 µM (inactive). The GI50 [25] was 38.3 µM (inactive), the GI50 [26] was 21.5 µM (inactive) and the GI50 [27] was 49.2 µM (inactive). The GI50 [28] was 40.2 µM (inactive), the GI50 [29] was 27 µM (inactive) and the GI50 [30] was > 100 µM (inactive). For the same compound, the GI50 [31] was 64.1 µM (inactive), the GI50 [32] was > 100 µM (inactive) and the GI50 [33] was > 100 µM (inactive). The GI50 [34] was > 100 µM (inactive), the GI50 [35] was > 100 µM (inactive) and the GI50 [36] was 49 µM (inactive). For the same compound, the GI50 [37] was 40.6 µM (inactive), the GI50 [38] was 49.3 µM (inactive) and the GI50 [39] was > 100 µM (inactive). The GI50 [40] was > 100 µM (inactive), the GI50 [41] was 44.6 µM (inactive) and the GI50 [42] was > 100 µM (inactive). The GI50 [43] was > 100 µM (inactive), the GI50 [44] was > 100 µM (inactive) and the GI50 [45] was 24.2 µM (inactive). For the same compound, the GI50 [46] was > 100 µM (inactive), the GI50 [47] was > 100 µM (inactive) and the GI50 [48] was > 100 µM (inactive). For the same compound, the GI50 [49] was > 100 µM (inactive), the GI50 [50] was > 100 µM (inactive) and the GI50 [51] was 55.5 µM (inactive). The GI50 [52] was > 100 µM (inactive), the GI50 [53] was > 100 µM (inactive) and the GI50 [54] was 30.3 µM (inactive). For the same compound, the GI50 [55] was 52.6 µM (inactive) and the GI50 [56] was > 100 µM (inactive).
In the case of `CCCc1cn2c(/C=N/NC(=N)N)c(-c3cc([N+](=O)[O-])c(Cl)cc3Cl)nc2s1`, the GI50 [1] is reported as 1.58 µM (inactive), the GI50 [2] is reported as 1.55 µM (inactive) and the GI50 [3] is reported as 1.48 µM (inactive). The GI50 [4] was 1.77 µM (inactive), the GI50 [5] was 2.15 µM (inactive) and the GI50 [6] was 1.77 µM (inactive). The GI50 [7] was 0.216 µM (active), the GI50 [57] was 1.48 µM (inactive) and the GI50 [8] was 1.82 µM (inactive). The GI50 [11] was 1.32 µM (inactive), the GI50 [12] was 1.66 µM and the GI50 [13] was 1.76 µM (inactive). The GI50 [14] was 1.58 µM (inactive), the GI50 [15] was 1.69 µM (inactive) and the GI50 [16] was 1.22 µM (inactive). For the same compound, the GI50 [17] was 1.85 µM (inactive), the GI50 [18] was 1.69 µM (inactive) and the GI50 [19] was 1.23 µM (inactive). The GI50 [20] was 1.5 µM (inactive), the GI50 [21] was 1.41 µM (inactive) and the GI50 [22] was 1.74 µM (inactive). The GI50 [23] was 1.4 µM (inactive), the GI50 [24] was 1.63 µM (inactive) and the GI50 [25] was 1.8 µM (inactive). For the same compound, the GI50 [26] was 0.17 µM (active), the GI50 [28] was 1.82 µM (inactive) and the GI50 [29] was 1.67 µM (inactive). For the same compound, the GI50 [30] was 1.72 µM (inactive), the GI50 [31] was 2.18 µM (inactive) and the GI50 [32] was 1.99 µM (inactive). The GI50 [33] was 1.5 µM (inactive), the GI50 [34] was 1.46 µM (inactive) and the GI50 [35] was 1.75 µM (inactive). The GI50 [36] was 1.54 µM (inactive), the GI50 [37] was 1.67 µM (inactive) and the GI50 [38] was 1.32 µM (inactive). For the same compound, the GI50 [39] was 1.9 µM (inactive), the GI50 [40] was 1.69 µM (inactive) and the GI50 [41] was 1.73 µM (inactive). For the same compound, the GI50 [42] was 1.88 µM (inactive), the GI50 [44] was 1.87 µM (inactive) and the GI50 [45] was 1.61 µM (inactive). For the same compound, the GI50 [46] was 1.91 µM (inactive), the GI50 [47] was 1.77 µM (inactive) and the GI50 [48] was 1.48 µM (inactive). The GI50 [49] was 1.71 µM (inactive), the GI50 [58] was 1.45 µM (inactive) and the GI50 [50] was 1.61 µM (inactive). The GI50 [51] was 1.38 µM (inactive), the GI50 [52] was 1.12 µM (inactive) and the GI50 [53] was 1.58 µM (inactive). The GI50 [54] was 1.66 µM (inactive), the GI50 [55] was 1.77 µM (inactive) and the GI50 [56] was 1.79 µM (inactive).
